Laboratory results from PMC3606385 (PLoS ONE, 2013).
Values joined by “and” are separate entries in the source; they are usually repeats but may differ in a detail not shown here. Identical values can stand only once. Like-named read-outs stand apart in the source and are kept apart here.

Key:
Rat 11β-HSD1 = target: T1, Rat 11β-HSD1 (Rattus norvegicus, UniProt P16232); experiment: 11β-HSD1 assay in intact rat Leydig cells; assay type: cell-based
T1 construct: endogenous in cells; host or cells: primary adult Sprague-Dawley rat Leydig cells
T1 sequence (P16232 whole entry): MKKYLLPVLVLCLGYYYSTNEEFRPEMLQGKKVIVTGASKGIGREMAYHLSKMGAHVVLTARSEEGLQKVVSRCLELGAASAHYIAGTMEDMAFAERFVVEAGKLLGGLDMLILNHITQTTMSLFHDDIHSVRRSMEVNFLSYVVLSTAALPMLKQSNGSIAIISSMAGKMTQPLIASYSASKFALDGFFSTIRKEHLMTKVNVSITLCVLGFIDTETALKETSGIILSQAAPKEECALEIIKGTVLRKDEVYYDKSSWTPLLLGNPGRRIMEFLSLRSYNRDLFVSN
Experimental: Rat Leydig cells contain the highest 11β-HSD1 activity in all cell types of rat tissues, and were used for rat 11β-HSD1 enzyme sources. Purified rat Leydig cells were obtained from 90-day-old Sprague-Dawley rats by collagenase digestion of the testes followed by Percoll density centrifugation of the cell suspension, according to the previously described method. […] The purity of cell fractions was evaluated by histochemical staining for 3β-hydroxysteroid dehydrogenase activity with […] etiocholanolone as the steroid substrate.
11β-HSD1 reductase activity was performed in intact cells using endogenous cofactor NADPH as described previously. […] 25×10^3 cells were added to each tube to initiate the reaction and the reaction mixture was incubated for up to 2 hrs, during which the reaction is within the linear range. At the end of reaction, the reaction was stopped by adding 2 ml ice-cold ether. The steroids were extracted, and the organic layer was dried under nitrogen. The steroids were separated chromatographically on thin layer plates in chloroform and methanol (90∶10, v/v), and the radioactivity was measured using a scanning radiometer (System AR2000, Bioscan Inc., Washington, DC) as described previously. The percentage conversion of 11DHC to CORT or cortisone to cortisol was calculated by dividing the radioactive counts identified as 11-OH-steroids by the total counts.
(§1) The IC50 was determined by adding different concentrations of each compound in the 11β-HSD1 or 11β-HSD2 reaction as described. The mode of inhibition was assayed by adding various concentrations of steroid substrates in the presence of an inhibitor as described.

[1] = target: T2, rat liver microsomal 11β-HSD1 (Rattus norvegicus, UniProt P16232); experiment: Mode of inhibition (Lineweaver-Burk), rat liver microsomal 11β-HSD1; assay type: biochemical; conditions: Lineweaver-Burk plot, substrate 11DHC
T2 construct: Rat liver, testis and kidney microsomes were prepared as described previously; from tissue; host or cells: rat liver microsomes
T2 sequence (P16232 whole entry): as above
Experimental: (§2) The rat testis and liver or human liver microsomes were used for 11β-HSD1 assay. 11β-HSD1 activity was performed in the microsome according to a previously described method. In brief, the assay tubes contained 25 nM substrate 11DHC (for rat) or cortisone (for human), spiked with 30,000 cpm their respective ^3H-11keto-steroid, 0.2 mM NADPH and 5 mM glucose-6-phosphaare in the PBS buffer. 2 µg microsomes were added to each tube to initiate the reaction and the reaction mixture was incubated for up to 2 hrs, during which the reaction is within the linear range. The rest procedure was similar to 11β-HSD1 assay in intact cells.
as §1
(§3) Enzyme data were subjected to nonlinear analysis by GraphPad (Version 5, GraphPad Software Inc., San Diego, CA) for IC50. Lineweaver-Burk plot was used for the mode of inhibition. Data were subjected to analysis by one-way ANOVA followed by Tukey's multiple comparisons testing to identify significant differences between groups when three were calculated. Differences were regarded as significant at P<0.05.

human liver 11β-HSD1 = target: T3, human liver 11β-HSD1 (Homo sapiens, UniProt P28845); experiment: Mode of inhibition, human liver 11β-HSD1; assay type: biochemical; conditions: data not shown
T3 construct: tissue Gentest (Woburn, MA); host or cells: human liver microsomes
T3 sequence (P28845 whole entry): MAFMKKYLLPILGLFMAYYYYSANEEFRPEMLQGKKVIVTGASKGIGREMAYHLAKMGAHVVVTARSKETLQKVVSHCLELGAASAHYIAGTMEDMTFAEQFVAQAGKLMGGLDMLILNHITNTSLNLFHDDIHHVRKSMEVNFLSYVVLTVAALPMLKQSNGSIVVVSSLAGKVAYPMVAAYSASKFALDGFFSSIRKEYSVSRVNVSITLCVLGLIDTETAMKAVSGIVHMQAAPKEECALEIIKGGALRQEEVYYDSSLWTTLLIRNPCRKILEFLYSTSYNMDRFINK
Experimental: as §2, §1, §3

db/db mice = conditions: cited from earlier work
Human 11β-HSD1 = target: T4, Human 11β-HSD1 (Homo sapiens, UniProt P28845); experiment: 11β-HSD1 assay in microsomes from CHOP cells transfected with human HSD11B1; assay type: biochemical
T4 construct: expressed in transfected cells; host or cells: CHOP cells (transient, FuGENE)
T4 sequence (P28845 whole entry): as above
Experimental: An expression plasmid was constructed to express human 11β-HSD1 (HSD11B1) cDNA in pcDNA I expression vector from its original human HSD11B1 vector (pBluescriptSK+).[15]. The Escherichia coli transformants carrying an insert were selected by colony hybridization, and a clone with the insert in the correct orientation relative to the vector T7 promoter was identified by restriction mapping. All transfections were carried out on 80% confluent cultures in 12-well plates. Aliquots of 1 µg HSD11B1 pcDNA I were transfected into mammalian CHOP cells with the FuGENE Transfection Reagent (Roche) according to manufacturer's protocol. Cells were allowed to grow for 24 hours in media containing 10% fetal bovine serum. Then media were removed and cells were harvested for 11β-HSD1 activity assay.
The rat testis and liver or human liver microsomes were used for 11β-HSD1 assay. 11β-HSD1 activity was performed in the microsome according to a previously described method. […] 2 µg microsomes were added to each tube to initiate the reaction and the reaction mixture was incubated for up to 2 hrs, during which the reaction is within the linear range. The rest procedure was similar to 11β-HSD1 assay in intact cells.
as §1

rats = conditions: cited from earlier work
[2] = human, oral doses up to 8 g; cited from earlier work

With `COc1cc(/C=C/C(=O)CC(=O)/C=C/c2ccc(O)c(OC)c2)ccc1O` [1 (Curcumin), Curcumin] the IC50 (Rat 11β-HSD1; intact adult rat Leydig cells, read-out: IC50 rat 11β-HSD1 in intact cells) was 5790 nM and 2290 nM and 2000 to 6000 nM, the IC50 (Rat 11β-HSD1; intact rat Leydig cells, read-out: Rat 11β-HSD1 IC50 (nM) in Leydig cells) was 5790 nM and the “Mode of inhibition of rat 11β-HSD1” value [1] was “competitive inhibitor”. For the same molecule, the “Mode of inhibition of human 11β-HSD1” value (human liver 11β-HSD1) was “competitive inhibitor”, the “Effect on body weights” value (db/db mice) was “lowered” and the “Effect on insulin resistance” value (db/db mice) was “corrected”. The “Effect on serum glucose levels” value (db/db mice) was “significantly reduced”, the IC50 (Human 11β-HSD1) was 10.6 ± 7.17 µM and the “Effect on serum and liver cholesterol levels” value (rats) was “lowered”. For the same molecule, the “Time to peak level after oral administration” value [2] was at most 1 h.
